Reference: patent publication US9745288B2, “Compounds and methods for treating cancer by inhibiting the urokinase receptor” (Indiana University Research and Technology Corporation, priority 2011, dated 2017)
“Also recorded” adds a separate entry of the source. Where two headings read alike, the source gives them in different places.

Key:
uPAR = target: T1, uPAR (Homo sapiens, UniProt Q03405); assay: Fluorescence polarization assay, displacement of AE147-FAM peptide from uPAR; assay type: binding
T1 construct: human uPAR (suPAR, amino acids 1-283) was expressed in stably transfected Drosophila S2 cells; made in house; host or cells: Drosophila S2 cells
T1 sequence (Q03405 23-305): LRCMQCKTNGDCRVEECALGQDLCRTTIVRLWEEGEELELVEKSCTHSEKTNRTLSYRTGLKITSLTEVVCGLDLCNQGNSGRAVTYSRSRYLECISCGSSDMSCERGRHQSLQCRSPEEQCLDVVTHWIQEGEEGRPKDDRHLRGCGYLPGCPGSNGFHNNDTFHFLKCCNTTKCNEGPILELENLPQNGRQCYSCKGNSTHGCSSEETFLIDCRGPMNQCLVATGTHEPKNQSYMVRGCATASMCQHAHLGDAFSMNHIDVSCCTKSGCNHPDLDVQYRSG
Procedure: Fluorescence Polarization Assay. The fluorescence polarization assay used fluorescent AE147-FAM peptide. uPAR was titrated against the fluorescent AE147-FAM peptide and data were fit to a sigmoidal dose-dependent curve as the FP value increases to determine the Kd of binding using Sigmaplot (Systat Software Inc., CA). Inhibitor screens were carried out in triplicates using 500 nM uPAR, 100 nM AE147-FAM, and inhibitor concentrations ranging from 0.78 μM to 100 μM in 50 μL volumes in black BD Falcon 384-well microplate. […] Polarized fluorescence intensities were measured immediately following addition of inhibitors to the protein-peptide mix at room temperature on an EnVision® Multilabel Plate Readers (PerkinElmer) with excitation and emission wavelengths of 485 nm and 530 nm, respectively.
Cloning, Expression and Purification of uPAR. uPAR was successfully cloned, expressed and purified. From 1 L of culture, nearly 12 mg of protein was expressed, which will be sufficient to conduct the experiments disclosed herein. Briefly, a truncated, soluble form of human uPAR (suPAR, amino acids 1-283) was expressed in stably transfected Drosophila S2 cells using the Drosophila Expression System (Invitrogen). suPAR was obtained by a two-step purification process. The conditioned culture medium was filtered (0.45 μm) and loaded onto a DEAE Sephadex column equilibrated with 20 mM Tris (pH 7.4). The protein was eluted with a gradient of 0-1 M NaCl in 20 mM Tris (pH 7.4). suPAR containing fractions were then pooled, concentrated, and filtered prior to RP-HPLC using a semi-preparative (10×25 cm) C8 column. A 1 mL aliquot of the concentrated protein was loaded onto the column at initial gradient conditions of 95% eluent A and 5% eluent B, where eluent A was 0.1% TFA/100% H2O and eluent B was 70:30 acetonitrile/[…]. The protein elutes using a gradient of 5% eluent A to 95% eluent B over 46 minutes at a flow rate of 4 mL/min. Under these conditions, the protein eluted as a single sharp peak (tR=29 min). […] Surface plasmon resonance confirmed that the purified uPAR was capable of binding to uPA. The identity of the 60 kDa band was established by immunoblot (not shown).
The design of a fluorescent probe was guided by the three-dimensional structure of uPAR in complex with peptide AE147.^27 As this peptide binds at the same site that is occupied by the growth factor-like domain of uPA, it provides the basis for the development of a competition assay to assess binding to this site. Flurescein was introduced to the N-terminus of AE147.
All 210 compounds were screened at initial concentration of 50 μM for displacement of AE147-FAM peptide. Eleven compounds gave polarization readings that were five times that of the standard deviation of the control peptide (FIG. 1B). Secondary concentration-dependent study for these eleven compounds was performed.
The resulting inhibition curves were used to determine an inhibition constant, Ki, for each.

MDA-MB-231 cells [1] = assay: MTT proliferation assay; assay type: cell-based, human; conditions: read-out: IC50 of cell proliferation (MTT)
Procedure: Proliferation Assay. The procedure consisted of culturing cells at 37° C. in 10% FBS-DMEM medium containing various amounts of compound. 5 mM compound stock in 100% DMSO was 1:50 diluted in medium, filtered, and serially diluted in 96-well plate. Then seeded cells were incubated for 3 days. Viable cells were quantified by MTT assay at absorbance of 570 and 630 nm.
(§1) FIGS. 4A-4D show inhibition of MDA-MB-231 proliferation and mechanism of cell killing. To gain insight into the mechanism by which these compounds are inhibiting growth, a flow cytometry analysis with annexin V-FITC and PI staining was performed. The level of apoptotic cells in MDA-MB-231 was assessed by the percentage of Annexin V-positive/PI-negative cells present after exposure of MDAMB-231 cells to increasing concentration of IPR-69 for 24 h (FIG. 4B). At a concentration of 50 μM, IPR-69 induced significant apoptosis as evidenced by a 51% and 21% increase in apoptotic cells (Annexin V positive/PI-negative) and necrotic cells (Annexin V-positive/PI-positive), respectively. […] At a concentration of 50 μM, 26% of cells were necrotic (Annexin V positive/PI-positive), a 22% increase over control. 46% of cells were apoptotic (Annexin V positive/PInegative), compared with 4% of control.

MDA-MB-231 cells [2] = assay: Apoptosis assay, flow cytometry with Annexin V-FITC and PI staining; assay type: cell-based, human; conditions: 50 μM
Procedure: Apoptosis Assay. MDA-MB-231 cells were cultured in DMEM medium supplemented with 10% FBS, 100 IU/mL penicillin and 50 μg/mL streptomycin in a humidified atmosphere containing 5% CO2 at 37° C. and grew to 80-90% confluence in P-60 mm plates, then treated with various amounts of compounds or 1% DMSO (as control) for different time points. Collected the supernatants and washed the cells with 1×PBS twice and collected. The cells were detached by using cellstripper (Mediatech Inc, VA), and washed twice with cold 1× PBS and resuspended in 1× binding buffer (Cat. PNN1001, Invitrogen Corporation, Camarillo, Calif.) at a concentration of 1×10^6 cells/mL. Transferred 100 μL of the solution (1×10^5 cells) to a 5 mL culture tube. Added 5 μL of Recombinant Human Annexin V FITC conjugate (Cat. ANNEXINV01, Invitrogen) and 5 μL of propidium iodide solution (Cat. P4864, Sigma-Aldrich, St. Louis, Mo.). Gently vortexed the cells and incubated for 15 min at room (25° C.) in the dark. Added 400 μL of 1× binding buffer to each tube. Analyzed by flow cytometry (FACScan).
as §1

salmon sperm DNA = assay: Fluorescent Intercalator Displacement assay (ethidium bromide); assay type: binding; set-up: displacement of ethidium bromide: dose or concentration left out as unconfirmed; conditions: for displacement of ethidium bromide: […] μM; for DNA binding: three concentrations tested
Procedure: Finally, DNA binding by these three compounds was assessed. DNA binding is often a reflection of non-specificity, which can lead to adverse side effects. The well-established Fluorescent Intercalator Displacement assay by Tse et al.^43 that measures displacement of ethidium bromide, a known intercalator of DNA was used. In this assay, ethidium bromide (EB) bound to the salmon sperm DNA.

[3] = Homo sapiens, MDA-MB-231, MDA-MB-231

IC50 (uPAR; Table 1, assay not stated) [µM]	Ki (uPAR; Table 1, assay not stated, read-out: Ki) [µM]	SMILES	IC50 (MDA-MB-231 cells [1]; [3]) [µM]	increase in necrotic cells (Annexin V-positive/PI-positive) (MDA-MB-231 cells [2]) [%]	apoptotic cells (Annexin V positive/PI-negative) (MDA-MB-231 cells [2]; percent of cells) [%]	necrotic cells (Annexin V positive/PI-positive) (MDA-MB-231 cells [2]; percent of cells) [%]	displacement of ethidium bromide (salmon sperm DNA)	DNA binding (salmon sperm DNA)	Ki (uPAR; from concentration-dependent inhibition curves, read-out: inhibition constant, Ki) [µM]	IC50 (MDA-MB-231 cells [1]; MDA-MB-231) [µM]	increase in apoptotic cells (Annexin V positive/PI-negative) (MDA-MB-231 cells [2]; 24 h) [%]
24.4	7.4	CN(C)c1ccc(CNCCC(Cc2ccccc2)c2ccc3c(c2)OCO3)cc1 (racemic) [IPR-9, 4-(((3-(benzo[d][1,3]dioxol-5-yl)-4-phenylbutyl)amino)methyl)-N,Ndimethylaniline]	6	22	46	26	30%	not strongly affected	–	–	–
–	–	Cc1cc(C)cc(NC(=O)c2cnn(-c3ccc(C(C)C)cc3)c2C2CCNCC2)c1 [IPR-69, N-(3,5-dimethylphenyl)-1-(4-isopropylphenyl)-5-(piperidin-4-yl)-1H-pyrazole-4-carboxamide]	18	21	–	–	less than 10%	not strongly affected; also recorded: no DNA binding	30	17	51
